Reference: patent US7601739B2, “Compounds having antiestrogenic and tissue selective estrogenic properties, and compounds with anti-androgenic properties for treatment of prostate cancer and androgen receptor dependent diseases” (Virgina Commonwealth University, priority 2006, dated 2009)

Key:
[1] = tested on: hER; assay: Fluorescence-based competitive binding assay for hER (displacement of fluormone ES2); parameters: species or system human; details: for Relative Binding Affinity: RBA = IC50 of tamoxifen/IC50 of test molecule, tamoxifen set at 1
Experimental: The estrogen receptor competitor assay kits (Panvera, Madison, Wis.) were used to determine the ability of test molecules to displace the fluormone, ES2, from hER -ES2 or hER -ES2 complex. Serial dilutions of each test molecule were prepared in methanol or DMSO. The recombinant hER or hER (7 nM) was preincubated with ES2 (1 nM) in screening buffer. After the preincubation, the test molecules and ER-ES2 complex solution were added into the 96-well microplate to produce a final volume of 100 μl per well. The reaction was incubated at room temperature for 1 hr and the polarization values were measured by using fluorescence microplate reader, Polarion (Tecan, Research Triangle Park, N.C.) with excitation wavelength 495 nm and emission wavelength 535 nm. The polarization value versus test molecule concentration curves was analyzed by graphfit software to generate IC50 values.
In this assay, recombinant hER and the commercial synthetic estrogen, ES2 containing fluorescence polarization property, are used. This assay is a homogenous assay. When the assay solution only contains ES2, the solution exerts weak fluorescence polarization property due to the quick rotation of free ES2 molecule. […] Addition of the antiestrogen to the ES2/hER displaces ES2 from hER and results in the whole solution exerting less fluorescence polarization property than the solution without antiestrogen.

[2] = target: T1, hERα D351Y (Homo sapiens, UniProt P03372, D351Y); assay: Transient transfection reporter assay with hERα D351Y mutant; format: cell-based
T1 construct: mammalian expression plasmid containing full length human ER cDNA, pCMV-hER; expressed in transfected cells
T1 sequence (P03372 1-595 D351Y): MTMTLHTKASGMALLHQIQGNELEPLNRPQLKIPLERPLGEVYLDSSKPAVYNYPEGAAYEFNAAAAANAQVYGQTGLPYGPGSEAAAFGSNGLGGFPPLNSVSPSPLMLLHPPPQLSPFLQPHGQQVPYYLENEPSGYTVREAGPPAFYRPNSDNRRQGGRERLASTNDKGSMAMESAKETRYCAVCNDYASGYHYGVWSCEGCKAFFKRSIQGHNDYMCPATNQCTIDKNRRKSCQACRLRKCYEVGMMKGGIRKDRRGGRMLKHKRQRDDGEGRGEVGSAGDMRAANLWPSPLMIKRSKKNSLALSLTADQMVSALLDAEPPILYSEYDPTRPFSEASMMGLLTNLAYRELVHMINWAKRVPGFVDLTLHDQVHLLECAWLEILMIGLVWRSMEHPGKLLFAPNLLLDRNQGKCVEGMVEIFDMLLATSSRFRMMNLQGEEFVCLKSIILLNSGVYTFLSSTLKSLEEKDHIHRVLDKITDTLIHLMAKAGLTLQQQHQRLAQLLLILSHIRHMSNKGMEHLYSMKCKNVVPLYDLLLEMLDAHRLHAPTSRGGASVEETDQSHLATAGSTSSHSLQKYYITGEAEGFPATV
Experimental: The tyrosine mutation (pCMV-D351Y) at amino acid 351 was introduced by using the Quick Change Site-Directed Mutagenesis Kit (Stratagene, La Jolla, Calif.) and pCMV-ER was used as the template. The primers constructed were as follows: 5′ primer (5′-[…]-3′) (SEQ ID NO. 9), the underlined nucleotide was changed to make the D351Y mutation) and a 3′ primer (5′-[…]-3′) (SEQ ID NO. 10).
For the transient transfection reporter assays, the cells were plated in triplicate in 12-well plates at a density of 300000 cells/well in the phenol red-free DMEM (GIBCO/BRL, Grand Island, N.Y.) supplemented with 10% charcoal-stripped fetal bovine serum (Hyclone, Logan, Utah), Penicillin (100 unit/ml)/Streptomycin ([…]), 2 mML-glutamine and 1 mM sodium Pyruvate. 24 hrs later, the cells were transfected with three plasmids by using Superfect transfection kit (Qiagen, Valencia, Calif.). For the detection of hER activity, cells were transfected with 2 g hER expression plasmid (pCMV-ER ), 6 g luciferase reporter plasmid containing estrogen receptor response element (PGL-TATA-Luc), and 600 ng normalization control, β-galactosidase reporter plasmid (pCMV ). For the detection of hER activity, cells were transfected with 3 ug hER expression plasmid (pcDNA3.1-hER), 6 g luciferase reporter plasmid containing estrogen receptor response element (PGL-TATA-Luc), and 600 ng pCMV. For determining the influence of ER's major coactivator in breast, AIB 1, 2 g pcDNA3.1-AIB1 was added into the transfection plasmid solution mentioned previously.
The transfected cells were rinsed with PBS and treated with various concentrations of test molecules and one […] (vehicle, DMSO or methanol) in phenol red-free culture medium. After incubation for further 24 hrs, the cells were washed with PBS and lysed with lysis buffer (Pierce, Rockford, Ill.). The lysate was used to determine the luciferase activity for ER's activity and the β-galactosidase activity for the normalization of transfection efficiency.
For the luciferase activity assay, 20 μl of lysate and 100 μl luciferase assay buffer (Promega, Madison, Wis.) were added into a well of 96-well plate. The luminescence was detected by using luminescence microplate reader, LumiCount (Packard, Boston, Mass.). For the β-galactosidase activity assay, […] β-galactosidase assay buffer (Clontech, Palo Alto, Calif.) were added into a well of 96-well plate. The β-galactosidase activity was measured as luminescence strength by using luminescence microplate reader, LumiCount (Packard, Boston, Mass.). The normalized reporter activity was calculated by the luciferase activity divided by that of β-galactosidase.
Amino acid 351 (D351) of hERα plays an essential role in regulating estrogenic or antiestrogenic compound's binding to hERα and the recruitment of corepressors. […] Based on this observation the hERα D351Y mutant is generated by PCR-based site directed mutagenesis method for use in the transient transfection reporter assay. The main goal of this testing is to elucidate the existence of the pure antiestrogenic property of the compounds of the invention and to determine whether the compounds estrogenic activity will increase due to the presence of hERα D351Y or not.
In this assay, DMSO was used as reference.

[3] = tested on: MCF-7 cells; assay: hERα positive breast cancer cell proliferation assay; format: cell-based, human; details: for activity at 5 µM: Homo sapiens, MCF7, 72 h, MCF-7 cells, DMSO = 1, read-out: Relative Cancer Cell Proliferation Effects at 5 μM
Experimental: MCF-7 or MDA-MB-231 cells were inoculated into 12-well culture plates at 10000 cells in 2 ml maintained medium per well. Cells were allowed to attach to the bottom for 24 hrs incubation, then the seeding medium was removed and replaced by the experimental medium (phenol red-free DMEM supplemented with 5% charcoal-stripped fetal bovine serum and Penicillin (100 unit/ml)/Streptomycin ([…])). After 24 hr incubation, the test molecules dissolved in DMSO were added in the wells. […] The culture was continued for 3 days and the medium and tested compounds were replaced every two days. The final cell numbers were estimated with CellTiter proliferation assay kit (Promega, Madison, Wis.) by measuring the absorbance at 570 nm, which is directly proportional to the number of living cells in the culture.
MCF-7 cell line was used to perform this assay and the description of this assay as mentioned above. […] DMSO was used as reference.

Row | Relative Binding Affinity [1] | estrogenic activity against hERα D351Y compared with hERα wild type (FIG. 5) [2] | estrogenic effects against mutant hERα D351Y compared with DMSO (FIG. 5) [2] | Compound | inhibition effects against MCF-7 cell proliferation [3] | activity at 5 µM [3] | binding affinity for hER compared with tamoxifen [1] | inhibition of MCF-7 cell proliferation ([3]; relative to DMSO)
1 | 0.192 | do not increase | even lower than that of DMSO | CCCCNC(=O)CCCCCCCCCCOCC1Cc2ccccc2CN1C(=O)c1cccc(OC)c1 (centres unmarked) [Compound 4] | slightly lower inhibition effects than compound 6 | 70% | – | –
2 | 5.0 | do not increase | even lower than that of DMSO | CCCCNC(=O)CCCCCCCCCCOCC1Cc2ccccc2CN1C(=O)c1cccc(O)c1 (centres unmarked) [Compound 6] | strongest inhibition effects | 62% | highest binding affinity and higher than tamoxifen | 38%
3 | 1.79 | do not increase | even lower than that of DMSO | CCCCNC(=O)CCCCCCCCCCOCC1Cc2ccccc2CN1C(=O)c1ccc(O)cc1 (centres unmarked) [Compound 7] | – | 95% | highest binding affinity and higher than tamoxifen | –
